Where a SMILES comes first, the peptide text is derived from it. The star is where a group is joined. Cbz = O=C(OCc1ccccc1)*; CH2F = FC*
Experiments:
[1] = system: γ-secretase complex proteins; experiment: γ-secretase complex protein levels by Western blot in H4 cells; format: cell-based, human; details: zVAD treatment
Protocol: Protein levels of PS1, nicastrin, Pen2 and Aph1A (components of the γ-secretase complex) were determined by Western blot (WB) analysis in H4 cells. […] The immature form of nicastrin appeared to be increased earlier (6 hrs) concurrently with caspase-3 activation (FIG. 5A). Furthermore, PS1-NTF, PS1-CTF, Pen2 and Aph1A were also up regulated (FIG. 5A). STS treatment also led to the generation of a caspase-mediated fragment of PS1-CTF (indicated by an arrow as a PS1-CTF). […] As a control for protein loading, the same blot was reprobed with an anti-Cu, Zn-SOD Ab showing that Cu, Zn-SOD protein levels were not increased.

[2] = system: BACE, PS1, nicastrin, Pen-2 and Aph1a mRNA; experiment: Northern blot of BACE and γ-secretase complex component mRNA in H4-APP751 cells; format: cell-based, human; details: after 6 hours of STS treatment
Protocol: FIG. 14 provides digitized images showing that transcription of BACE and γ-secretase complex components is decreased during apoptosis. Northern Blot analysis: H4-APP751 cells were treated with STS in serum free media. Total RNA was extracted using TRIZOL (Invitrogen). 20 μg of the resulting RNA were analyzed by Northern blot analysis performed as previously described (Koh, Y. H. et al., Faseb J 15, 1472-4 (2001)). Human cDNA of BACE, PS1 , nicastrin, Pen-2, Aph1a was labeled with [α-^32P]dCTP (PerkinElmer) using random hexanucleotide primers (Prime-a-gene labeling system; Promega). Ethidium staining of the gel (lower panel) confirmed equal RNA loading.
We next asked whether apoptosis increases protein levels of BACE, PS1, nicastrin, Pen-2 and Aph1a via increased synthesis. […] We next asked whether BACE, PS1, nicastrin, Pen-2 and Aph1a protein levels are increased during apoptosis due to decreased degradation. […] In contrast, TACE, full-length APP, and APP-CTFs were not stabilized during apoptosis (FIG. 15a). Given that the components of the β-amyloidogenic secretases are stabilized during apoptosis while many other proteins are degraded (e.g. TACE, APP), the apparent increase of protein levels at the latest time points of the CHX+STS time course was most likely due to a relative increase of stabilized protein when normalized for the equal amounts of total protein.

SMILES | upregulation of γ-secretase complex proteins during STS-induced apoptosis [1] | BACE, PS1, nicastrin, Pen-2 and Aph1a mRNA levels [2]
COC(=O)C[C@H](NC(=O)[C@H](C)NC(=O)[C@@H](NC(=O)OCc1ccccc1)C(C)C)C(=O)CF [zVAD] (Cbz-Val-Ala-Asp(OMe)-CH2F) | prevented upregulation | –
CN[C@@H]1C[C@H]2O[C@@](C)([C@@H]1OC)n1c3ccccc3c3c4c(c5c6ccccc6n2c5c31)C(=O)NC4 [STS, staurosporine] | – | virtually undetectable
